30 molecules from patent US8445676B2, “Pyrrolotriazine kinase inhibitors” (Bristol-Myers Squibb Company, priority 2008, dated 2013) can be followed below.

Structures are written as SMILES. pIC50: −log10 of the molar value.

Chain of JAK2 (O60674 whole entry): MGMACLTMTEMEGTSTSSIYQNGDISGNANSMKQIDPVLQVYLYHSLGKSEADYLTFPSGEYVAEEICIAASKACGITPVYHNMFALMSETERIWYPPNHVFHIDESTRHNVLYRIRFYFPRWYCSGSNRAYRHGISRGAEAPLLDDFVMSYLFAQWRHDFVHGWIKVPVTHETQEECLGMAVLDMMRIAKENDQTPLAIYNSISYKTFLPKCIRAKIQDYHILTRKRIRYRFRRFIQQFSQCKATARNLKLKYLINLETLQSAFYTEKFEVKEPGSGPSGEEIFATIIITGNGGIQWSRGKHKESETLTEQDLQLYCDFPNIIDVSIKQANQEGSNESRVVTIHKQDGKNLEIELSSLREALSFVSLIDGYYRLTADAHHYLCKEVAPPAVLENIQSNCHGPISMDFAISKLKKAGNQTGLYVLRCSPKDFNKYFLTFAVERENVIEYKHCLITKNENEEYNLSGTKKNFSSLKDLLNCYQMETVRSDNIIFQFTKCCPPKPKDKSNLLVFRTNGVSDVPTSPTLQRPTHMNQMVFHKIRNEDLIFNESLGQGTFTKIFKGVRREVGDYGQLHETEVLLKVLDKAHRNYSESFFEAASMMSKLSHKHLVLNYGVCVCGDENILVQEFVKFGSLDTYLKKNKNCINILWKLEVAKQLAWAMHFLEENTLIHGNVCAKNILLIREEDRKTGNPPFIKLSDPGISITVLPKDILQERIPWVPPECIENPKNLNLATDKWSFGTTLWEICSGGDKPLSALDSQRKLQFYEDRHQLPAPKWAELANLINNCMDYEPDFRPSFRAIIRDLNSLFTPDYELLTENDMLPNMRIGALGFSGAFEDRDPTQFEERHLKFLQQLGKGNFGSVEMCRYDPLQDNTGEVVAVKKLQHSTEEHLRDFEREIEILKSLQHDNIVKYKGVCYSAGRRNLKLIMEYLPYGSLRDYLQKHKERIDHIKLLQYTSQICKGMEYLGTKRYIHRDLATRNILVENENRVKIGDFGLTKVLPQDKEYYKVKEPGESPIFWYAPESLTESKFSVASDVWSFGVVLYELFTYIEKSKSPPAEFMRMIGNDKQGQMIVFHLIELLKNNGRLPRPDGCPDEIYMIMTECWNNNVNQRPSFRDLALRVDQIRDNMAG

For the experiment, the target named is JAK2 (Homo sapiens, UniProt O60674). Briefly: JAK2 Tyrosine Kinase Assay. The class given is biochemical. Particulars: list of named compounds; read-out: IC50 in the JAK2 assay. How it is done:
JAK2 Tyrosine Kinase Assay
The assays were performed in V-bottom 384-well plates. […] The reaction was initiated by the combination of JAK2 with substrates and test compounds. The reaction was incubated at room temperature for 60 min. and terminated by adding 45 μl of 35 mM EDTA to each sample. The reaction mixture was analyzed on the Caliper LabChip 3000 by electrophoretic separation of the fluorescent substrate and phosphorylated product. […] Compounds were dissolved at 10 mM in dimethylsulfoxide (DMSO) and evaluated at eleven concentrations, each in duplicate. IC50 values were derived by non-linear regression analysis
With `CCCCC(=O)N1CCN(c2nc(Nc3cc(C)[nH]n3)c3cccn3n2)CC1` [N-(5-methyl-1H-pyrazol-3-yl)-2-(4-pentanoyl-1-piperazinyl)pyrrolo[2,1-f][1,2,4]triazin-4-amine], the pIC50 is not below 8.30. Next, `Cc1cc(Nc2nc(N3CCN(C(=O)c4cccc(C#N)c4)CC3)nn3cccc23)n[nH]1` [3-((4-(4-((5-methyl-1H-pyrazol-3-yl)amino)pyrrolo[2,1-f][1,2,4]triazin-2-yl)-1-piperazinyl)carbonyl)benzonitrile]: not below 8.30; `COc1cccc(F)c1C(=O)N1CCN(c2nc(Nc3cc(C)[nH]n3)c3cccn3n2)CC1` [2-(4-(2-fluoro-6-methoxybenzoyl)-1-piperazinyl)-N-(5-methyl-1H-pyrazol-3-yl)pyrrolo[2,1-f][1,2,4]triazin-4-amine]: not below 8.30; `Cc1cc(Nc2nc(N3CCN(C(=O)c4ccccc4COc4ccccc4)CC3)nn3cccc23)n[nH]1` [N-(5-methyl-1H-pyrazol-3-yl)-2-(4-(2-(phenoxymethyl)benzoyl)-1-piperazinyl)pyrrolo[2,1-f][1,2,4]triazin-4-amine]: not below 8.30.

In the case of `Cc1cc(Nc2nc(N3CCN(C(=O)c4ncco4)CC3)nn3cccc23)n[nH]1` [N-(5-methyl-1H-pyrazol-3-yl)-2-(4-(1,3-oxazol-2-ylcarbonyl)-1-piperazinyl)pyrrolo[2,1-f][1,2,4]triazin-4-amine], the pIC50 is not below 8.30. Next, `Cc1cc(Nc2nc(N3CCN(C(=O)C4(c5ccccc5)CC4)CC3)nn3cccc23)n[nH]1` [N-(5-methyl-1H-pyrazol-3-yl)-2-(4-((1-phenylcyclopropyl)carbonyl)-1-piperazinyl)pyrrolo[2,1-f][1,2,4]triazin-4-amine]: not below 8.30. Next, `Cc1cccc(C(=O)N2CCN(c3nc(Nc4cc(C)[nH]n4)c4cccn4n3)CC2)c1` [2-(4-(3-methylbenzoyl)-1-piperazinyl)-N-(5-methyl-1H-pyrazol-3-yl)pyrrolo[2,1-f][1,2,4]triazin-4-amine]: not below 8.30. For `CO[C@](C(=O)N1CCN(c2nc(Nc3cc(C)[nH]n3)c3cccn3n2)CC1)(c1ccccc1)C(F)(F)F` [N-(5-methyl-1H-pyrazol-3-yl)-2-(4-((2S)-3,3,3-trifluoro-2-methoxy-2-phenylpropanoyl)-1-piperazinyl)pyrrolo[2,1-f][1,2,4]triazin-4-amine], the pIC50 was not below 8.30. Next, `Cc1cc(Nc2nc(N3CCN(C(=O)c4cccn4C)CC3)nn3cccc23)n[nH]1` [N-(5-methyl-1H-pyrazol-3-yl)-2-(4-((1-methyl-1H-pyrrol-2-yl)carbonyl)-1-piperazinyl)pyrrolo[2,1-f][1,2,4]triazin-4-amine]: not below 8.30. `Cc1cc(Nc2nc(N3CCN(C(=O)Cc4ccccc4)CC3)nn3cccc23)n[nH]1` [N-(5-methyl-1H-pyrazol-3-yl)-2-(4-(phenylacetyl)-1-piperazinyl)pyrrolo[2,1-f][1,2,4]triazin-4-amine]: the pIC50 was not below 8.30. Next, `Cc1cc(Nc2nc(N3CCN(C(=O)C4(c5ccccc5)CCC4)CC3)nn3cccc23)n[nH]1` [N-(5-methyl-1H-pyrazol-3-yl)-2-(4-((1-phenylcyclobutyl)carbonyl)-1-piperazinyl)pyrrolo[2,1-f][1,2,4]triazin-4-amine]: not below 8.30; `Cc1cc(Nc2nc(N3CCN(C(=O)c4c(C)cccc4Cl)CC3)nn3cccc23)n[nH]1` [2-(4-(2-chloro-6-methylbenzoyl)-1-piperazinyl)-N-(5-methyl-1H-pyrazol-3-yl)pyrrolo[2,1-f][1,2,4]triazin-4-amine]: not below 8.30. On to `Cc1cc(Nc2nc(N3CCN(C(=O)C4(NC(=O)OC(C)(C)C)CCc5ccccc54)CC3)nn3cccc23)n[nH]1` (stereo not drawn) [tert-butyl (1-((4-(4-((5-methyl-1H-pyrazol-3-yl)amino)pyrrolo[2,1-f][1,2,4]triazin-2-yl)-1-piperazinyl)carbonyl)-2,3-dihydro-1H-inden-1-yl)carbamate], for which the pIC50 was not below 8.30. Next, `Cc1cc(Nc2nc(N3CCN(C(=O)c4ccccc4[N+](=O)[O-])CC3)nn3cccc23)n[nH]1` [N-(5-methyl-1H-pyrazol-3-yl)-2-(4-(2-nitrobenzoyl)-1-piperazinyl)pyrrolo[2,1-f][1,2,4]triazin-4-amine]: not below 8.30; `Cc1cc(Nc2nc(N3CCN(C(=O)c4ccccc4OC(F)(F)F)CC3)nn3cccc23)n[nH]1` [N-(5-methyl-1H-pyrazol-3-yl)-2-(4-(2-(trifluoromethoxy)benzoyl)-1-piperazinyl)pyrrolo[2,1-f][1,2,4]triazin-4-amine]: not below 8.30; `Cc1cc(Nc2nc(N3CCN(C(=O)c4ccccc4C(F)(F)F)CC3)nn3cccc23)n[nH]1` [N-(5-methyl-1H-pyrazol-3-yl)-2-(4-(2-(trifluoromethyl)benzoyl)-1-piperazinyl)pyrrolo[2,1-f][1,2,4]triazin-4-amine]: not below 8.30. Next, `Cc1cc(Nc2nc(N3CCN(C(=O)c4cnon4)CC3)nn3cccc23)n[nH]1` [N-(5-methyl-1H-pyrazol-3-yl)-2-(4-(1,2,5-oxadiazol-3-ylcarbonyl)-1-piperazinyl)pyrrolo[2,1-f][1,2,4]triazin-4-amine]: not below 8.30; `Cc1cc(Nc2nc(N3CCN(C(=O)[C@@H](O)Cc4ccccc4)CC3)nn3cccc23)n[nH]1` [(2S)-1-(4-(4-((5-methyl-1H-pyrazol-3-yl)amino)pyrrolo[2,1-f][1,2,4]triazin-2-yl)-1-piperazinyl)-1-oxo-3-phenyl-2-propanol]: not below 8.30. Turning to `Cc1cc(Nc2nc(N3CCN(C(=O)c4cccnc4Cl)CC3)nn3cccc23)n[nH]1` [2-(4-((2-chloro-3-pyridinyl)carbonyl)-1-piperazinyl)-N-(5-methyl-1H-pyrazol-3-yl)pyrrolo[2,1-f][1,2,4]triazin-4-amine], the pIC50 is not below 8.30. On to `Cc1cc(Nc2nc(N3CCN(C(=O)C4(C)CC4)CC3)nn3cccc23)n[nH]1` [2-(4-((1-methylcyclopropyl)carbonyl)-1-piperazinyl)-N-(5-methyl-1H-pyrazol-3-yl)pyrrolo[2,1-f][1,2,4]triazin-4-amine], for which the pIC50 was not below 8.30.

Take `Cc1cc(Nc2nc(N3CCN(C(=O)C(O)c4c(F)cccc4F)CC3)nn3cccc23)n[nH]1` (stereo not drawn) [1-(2,6-difluorophenyl)-2-(4-(4-((5-methyl-1H-pyrazol-3-yl)amino)pyrrolo[2,1-f][1,2,4]triazin-2-yl)-1-piperazinyl)-2-oxoethanol]: the pIC50 was not below 8.30. For the molecule `Cc1cc(Nc2nc(N3CCN(C(=O)c4cc[nH]n4)CC3)nn3cccc23)n[nH]1` [N-(5-methyl-1H-pyrazol-3-yl)-2-(4-(1H-pyrazol-3-ylcarbonyl)-1-piperazinyl)pyrrolo[2,1-f][1,2,4]triazin-4-amine], the pIC50 was not below 8.30. Next, `Cc1cc(Nc2nc(N3CCN(C(=O)Cc4ccc(Cl)cc4F)CC3)nn3cccc23)n[nH]1` [2-(4-((4-chloro-2-fluorophenyl)acetyl)-1-piperazinyl)-N-(5-methyl-1H-pyrazol-3-yl)pyrrolo[2,1-f][1,2,4]triazin-4-amine]: not below 8.30; `Cc1cc(Nc2nc(N3CCN(C(=O)c4cccnc4C)CC3)nn3cccc23)n[nH]1` [N-(5-methyl-1H-pyrazol-3-yl)-2-(4-((2-methyl-3-pyridinyl)carbonyl)-1-piperazinyl)pyrrolo[2,1-f][1,2,4]triazin-4-amine]: not below 8.30; `Cc1cc(Nc2nc(N3CCN(C(=O)c4c(F)cccc4C(F)(F)F)CC3)nn3cccc23)n[nH]1` [2-(4-(2-fluoro-6-(trifluoromethyl)benzoyl)-1-piperazinyl)-N-(5-methyl-1H-pyrazol-3-yl)pyrrolo[2,1-f][1,2,4]triazin-4-amine]: not below 8.30. `Cc1cc(Nc2nc(N3CCN(C(=O)[C@H](O)c4ccccc4)CC3)nn3cccc23)n[nH]1` [(1R)-2-(4-(4-((5-methyl-1H-pyrazol-3-yl)amino)pyrrolo[2,1-f][1,2,4]triazin-2-yl)-1-piperazinyl)-2-oxo-1-phenylethanol]: the pIC50 is not below 8.30. Next, `CCC(C(=O)N1CCN(c2nc(Nc3cc(C)[nH]n3)c3cccn3n2)CC1)c1ccccc1` (stereo not drawn) [N-(5-methyl-1H-pyrazol-3-yl)-2-(4-(2-phenylbutanoyl)-1-piperazinyl)pyrrolo[2,1-f][1,2,4]triazin-4-amine]: not below 8.30; `Cc1cc(Nc2nc(N3CCN(C(=O)c4cccc(C(F)(F)F)c4)CC3)nn3cccc23)n[nH]1` [N-(5-methyl-1H-pyrazol-3-yl)-2-(4-(3-(trifluoromethyl)benzoyl)-1-piperazinyl)pyrrolo[2,1-f][1,2,4]triazin-4-amine]: not below 8.30; `Cc1cc(Nc2nc(N3CCN(C(=O)c4ccccc4F)CC3)nn3cccc23)n[nH]1` [2-(4-(2-fluorobenzoyl)-1-piperazinyl)-N-(5-methyl-1H-pyrazol-3-yl)pyrrolo[2,1-f][1,2,4]triazin-4-amine]: not below 8.30. Next, `Cc1cc(Nc2nc(N3CCN(C(=O)[C@@H](NC(=O)OC(C)(C)C)c4ccc(F)cc4)CC3)nn3cccc23)n[nH]1` [tert-butyl((1S)-1-(4-fluorophenyl)-2-(4-(4-((5-methyl-1H-pyrazol-3-yl)amino)pyrrolo[2,1-f][1,2,4]triazin-2-yl)-1-piperazinyl)-2-oxoethyl)carbamate]: not below 8.30.
